From patent publication US12139475B2, “2-oxindole compounds” (CHEMOCENTRYX, INC., priority 2016, dated 2024)

These compounds were tested against T1, CCR(9) (Homo sapiens, UniProt P51686) (assay: Serum chemotaxis assay (MOLT-4 cells, TECK-induced migration, ChemoTX)). Details: MOLT-4 cells in human serum, migration to recombinant human TECK, 90 minutes at 37° C.
T1 construct: MOLT-4 cells were collected by centrifugation at 400×g at room temperature, then suspended at 50 million/ml in human serum; host or cells: MOLT-4
T1 sequence (P51686 1-369): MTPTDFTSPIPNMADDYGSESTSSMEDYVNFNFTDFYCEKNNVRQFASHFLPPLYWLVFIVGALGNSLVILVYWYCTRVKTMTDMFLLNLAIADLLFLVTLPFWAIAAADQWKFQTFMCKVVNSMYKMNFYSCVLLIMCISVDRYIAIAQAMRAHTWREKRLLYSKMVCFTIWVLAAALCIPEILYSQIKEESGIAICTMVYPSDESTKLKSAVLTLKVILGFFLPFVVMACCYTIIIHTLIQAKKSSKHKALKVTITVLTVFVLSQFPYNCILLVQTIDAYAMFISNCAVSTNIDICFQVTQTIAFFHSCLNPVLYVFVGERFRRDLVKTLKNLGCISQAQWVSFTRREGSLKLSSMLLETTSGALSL
Format: cell-based
Method: MOLT-4 cells were obtained from the American Type Culture Collection (Manassas, VA) and cultured in RPMI tissue culture medium supplemented with 10% fetal calf serum (FCS) in a humidified 5% CO2 incubator at 37° C. Recombinant human chemokine proteins TECK was obtained from R&D Systems (Minneapolis, MN). ChemoTX™ chemotaxis microchambers were purchased from Neuro Probe (Gaithersburg, MD). CyQUANT™ cell proliferation kits were purchased from Molecular Probes (Eugene, Oregon). Calcium indicator dye Fluo-4 AM was purchased from Molecular Devices (Mountain View, CA).
A serum chemotaxis assay was used to determine the efficacy of potential receptor antagonists at blocking the migration mediated through chemokine receptors, such as CCR(9). This assay was performed using the ChemoTX® microchamber system with a 5-μm pore-sized polycarbonate membrane. MOLT-4 cells were collected by centrifugation at 400×g at room temperature, then suspended at 50 million/ml in human serum, containing 50 mM HEPES (final pH of 7.2). The compound being tested or an equivalent volume of its solvent (DMSO) was then added to the cell/serum mixture at a final DMSO concentration of 0.125% (v/v), and this mixture was then incubated together at 37° C. for one hour. Separately, recombinant human TECK was diluted with chemotaxis buffer (HBSS+0.1% BSA), generally spanning a range from 0.1 nM to 500 nM, after which 29 μl of diluted chemokine was placed in the lower wells of the ChemoTX® plate. The 5-μm (pore size) polycarbonate membrane was placed onto the plate, and 20 μL of the cell/compound mixture was transferred onto each well of the membrane. The plates were incubated at 37° C. for 90 minutes, after which the polycarbonate membranes were removed and 5 μl of the DNA-intercalating agent CyQUANT (Invitrogen, Carlsbad, CA) was added to the lower wells. The amount of fluorescence, corresponding to the number of migrated cells, was measured using a Spectrafluor Plus plate reader (TECAN, San Jose, CA).
The A2 values were calculated from the following equation, comparing the efficacy of the test compound with that of the DMSO-only control at equi-active chemokine levels: Log(A2)=log[drug(M)]−log[(A′/A)−1] where A reflects the potency of the agonist in the absence of antagonist and A′ reflects the potency of the agonist in the presence of antagonist at a given concentration of drug ([drug(M)]). In Vivo Efficacy Models for Human IBD

Chemotaxis A2 | SMILES
+ (20000 nM ≥ A2 ≥ 500 nM) | COc1ccc(C2(C)C(=O)N(c3cccc(C(=O)O)c3)c3ccc(Cl)cc32)cc1F (stereo not drawn)
+++ (100 nM > A2) | CC1(C)CCc2cc([C@]3(C)C(=O)N(c4cc(F)cc(C(=O)O)c4)c4ccc(Cl)cc43)ccc2O1
++ (500 nM > A2 ≥ 100 nM) | CC(C)(C)c1ccc(C2(C)C(=O)N(c3cncc(C(=O)O)c3)c3ccc(Cl)cc32)cc1 (stereo not drawn)
+++ (100 nM > A2) | CC1(C)CCc2cc([C@]3(C)C(=O)N(c4ccc(C(F)(F)F)c(C(=O)O)c4)c4ccc(Cl)cc43)ccc2O1
+++ (100 nM > A2) | COc1ccc(C(=O)O)c(CN2C(=O)[C@@](C)(c3ccc4c(c3)CCC(C)(C)O4)c3cc(Cl)ccc32)c1
+++ (100 nM > A2) | CC1(C)CCc2cc([C@]3(C)C(=O)N(c4ccc(C(=O)O)cc4)c4ccc(Cl)cc43)ccc2O1
++ (500 nM > A2 ≥ 100 nM) | CC1(c2ccc(C3(C#N)CC3)cc2)C(=O)N(c2cccc(C(=O)O)c2)c2ccc(Cl)cc21 (stereo not drawn)
+++ (100 nM > A2) | CCOc1ccc(N2C(=O)[C@@](C)(c3ccc4c(c3)CCC(C)(C)O4)c3cc(Cl)ccc32)cc1C(=O)O
+++ (100 nM > A2) | CC1(C)CCc2cc(C3(C)C(=O)N(Cc4ccc(C(=O)O)cc4)c4ccc(Cl)cc43)ccc2O1 (stereo in doubt) [4-[[(3R)-5-chloro-3-(2,2-dimethylchroman-6-yl)-3-methyl-2-oxo-indolin-1-yl]methyl]benzoic acid]
++ (500 nM > A2 ≥ 100 nM) | CC1(C)CCc2cc(C3(C)C(=O)N(c4cccc(C(=O)O)c4)c4cc(Cl)ccc43)ccc2O1 (stereo not drawn)
+++ (100 nM > A2) | CC1(C)CCc2cc(C3(C)C(=O)N(c4cccc(C(=O)O)c4)c4ccc(C5CC5)cc43)ccc2O1 (stereo not drawn)
+++ (100 nM > A2) | CC1(C)CCc2cc([C@]3(C)C(=O)N(c4ccc(F)c(C(=O)O)c4)c4ccc(Cl)cc43)ccc2O1
